From patent publication US9707239B2, “Compounds that modulate oxidative stress” (vTv Therapeutics LLC, priority 2011, dated 2017) come the findings set out here.

Common to all, as to format: cell-based, human
For series [1], the system named is HMOX1. Nature of the series: Effect of NAC on compound induction of HMOX gene expression. To be noted: NHLF cells pretreated with 5 mM NAC 1 hr, compound 6 h, FIG. 4. As to the method: NHLF cells were grown to 80% confluency and harvested by washing once with HEPES and then trypsinizing. Equal numbers (7×10^4 cells per well) of NHLF cells were plated in 96 well tissue culture (Corning) plates. Cells were incubated overnight in FGM-2 medium prior to exposure to compound. Cells were pretreated with 5 mM N-acetyl cysteine for 1 hr. Cells were treated with either DMSO or compound for 6 h. Preparation of cell lysates was carried out according to Quantigene Reagent system 2.0 protocol (Panomics). Heme oxygenase mRNA induction was detected from cell lysate using the Quantigene Plex 2.0 Assay Kit (Panomics) on the Luminex platform (BIO-RAD). Expression of GAPDH mRNA was used as the internal control for the Quantigen Plex 2.0 Assay. Heme oxygenase data represents the fold change, normalized to control values, above DMSO treated cells.
A further test of the hypothesis that Compound 13 induces HMOX1 with minimal alteration of cellular redox levels or chemical reactivity was carried out by treating cells with N-acetyl cysteine (NAC). This compound acts to restore cellular glutathione levels and thus prevent oxidative stress. The degree to which NAC can suppress HMOX1 induction is an indicator of the amount of chemical reactivity or ROS stress that a compound is imposing on the cell and thus activating phase II gene transcription. […] Coupled with the data shown in FIG. 3, it is concluded that Compound 13 induces HMOX1 with minimal elevation of ROS or NAC-sensitive chemical reactivity.

Series [2] concerns HMOX1. Nature of the series: mRNA expression (Quantigene Plex) in NHLF cells: HMOX1. To be noted: Table 5, 6 h, mRNA normalized to GAPDH, above DMSO treated cells. As to the method:
(§1) Secondary growth of NHLF cells were used for all assays. Cell were thawed and then placed into culture in T225 flasks. The cells were grown to 80% confluency and harvested by washing once with HEPES buffered saline solution and then trypsinizing. Equal numbers (7×10^3 cells per well) of NHLF cells were plated in 96 well tissue culture plates (Corning). Cells were incubated overnight in FGM-2 medium prior to exposure to compound. Cells were treated with either DMSO or a compound as described below for 6 h. Preparation of cell lysates was carried out according to instructions using the Quantigene Reagent system 2.0 protocol (Panomics). mRNA induction was detected from cell lysate using the Quantigene Plex 2.0 Assay Kit (Panomics) on the Luminex platform (BIO-RAD). Expression of GAPDH mRNA was used as the internal control for the Quantigen Plex 2.0 Assay. The data in Tables 5 and 6 represents the fold change of target mRNA expression, normalized to control values, above DMSO treated cells.

Another series has as its system GADD45A. The experiment in a line: mRNA expression (Quantigene Plex) in NHLF cells: GADD45A. As to conditions: Table 5, 6 h, mRNA normalized to GAPDH, above DMSO treated cells. As to the method: as §1
A further series has as its system ATF4. The experiment in a line: mRNA expression (Quantigene Plex) in NHLF cells: ATF4. As to conditions: Table 5, 6 h, mRNA normalized to GAPDH, above DMSO treated cells. As to the method:
as §1

The next series relates to NHLF cells. The experiment in a line: ROS measurements (H2DCF-DA imaging). As to conditions: 1 hr, cell-by-cell imaging, FIG. 3A/3B. The method, boiled down: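 Secondary-passage NHLF cells (2,000/well, overnight) loaded 30 min with H2DCF-DA, 10 μM ferric ammonium citrate and Hoechst, washed, then treated with compound in FBM-2 medium 1 h at 37 °C, 5% CO2. ROS quantified by automated fluorescence imaging of DCF signal.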

Another series deals with Nrf2. Nature of the series: HMOX1 mRNA induction after Nrf2 siRNA silencing. As to conditions: NHLF cells, 50 nM siRNA 48 hours, FIG. 5. As to the method:
Small interfering RNA targeting Nrf-2 (cat# SI03246614) or KEAP-1 (cat# SI03246439) were obtained from Qiagen at 20 nmol/tube. Negative control siRNA (cat#1027280) was also obtained from Qiagen. Lyophilized siRNA in each tube was resuspended with 1 ml of the provided siRNA Suspension Buffer to make a stock solution of 20 μM and tubes were heated at 90° C. for one minute and then at 37° C. for one hour prior to initial use.
Normal human lung fibroblasts were plated at 5000 cells/well in 96-well plates and allowed to attach. Prior to experiments, well s containing the cells were refreshed with 30 μl of complete growth medium. For each siRNA type, a 4× concentration (200 nM) of siRNA was prepared by adding 11 μl of siRNA stock into 1.1 ml of serum-free medium containing 9 μl/ml of SILENTFECT Lipid Reagent (BioRad, cat#170-3361). This solution was incubated at room temperature for 20 minutes prior to adding 10 μl into each well for a final concentration of 50 nM siRNA. Cells were incubated with siRNA for 48 hours, after which they were treated with compound for either 5 hours (QuantiGene RNA assay) or 15 hours (protein immunofluorescence assay).
The predicted response profile is that silencing of Nrf2 should reduce the amount of HMOX1 induction by Compound 13 and other HMOX1 inducers that are electrophiles or reactive compounds. To that end, Compound 13 and other tool compounds were tested in cells that were treated with siRNA directed to Nrf2. Following gene silencing with specific siRNA or control siRNA, the ability of tool compounds to induce HMOX1 mRNA was determined.

Entries after “also recorded” stand apart in the source; their conditions may differ.

`O=C(Nc1ccc2cn[nH]c2c1)c1ccc2[nH]c(Nc3nc4ccccc4s3)nc2c1` [Compound 13, 2-(Benzothiazol-2-ylamino)-1H-benzoimidazole-5-carboxylic acid (1H-indazol-6-yl)-amide]: in the series on HMOX1 [1], the “effect of N-acetyl cysteine (NAC) on HMOX1 induction” value was “induces the greatest amount of HMOX1 with the least impact by NAC; also recorded: still induces HMOX1 expression in the presence of NAC”. Also, in the series on HMOX1 [2], the “HMOX1 (fold induction)” value was determined as 25 fold induction. In the series with GADD45A, the “GADD45A (fold induction)” value is 0.89 fold induction. In addition, in the series with ATF4, the “ATF4 (fold induction)” value worked out at 1.2 fold induction. The “ROS production (in words)” value in the series with NHLF cells was “modestly elevated ROS production; also recorded: little increase in ROS production”. The “HMOX1 mRNA induction with siRNA directed to Nrf2” value in the series on Nrf2 was “affected by the presence of the siRNA for Nrf2; also recorded: requires Nrf2 for full induction of HMOX1 mRNA”.
